Numbers after ± are expanded uncertainties.
Conditions: Liquid, Vibrating tube method

CC(C)CC(C)C [2,4-dimethylpentane]
Conditions	mass density [kg/m3]
323.15 K, 25018 kPa	673.5 ± 0.9
323.15 K, 29938 kPa	677.9 ± 0.9
323.15 K, 35006 kPa	682.2 ± 1
323.15 K, 39965 kPa	686.1 ± 1
323.15 K, 45012 kPa	690 ± 1
323.15 K, 49970 kPa	693.6 ± 1.1
323.15 K, 54953 kPa	697.1 ± 1.1
323.15 K, 59965 kPa	700.4 ± 1.1
323.15 K, 65022 kPa	703.7 ± 1.1
328.15 K, 98 kPa	641 ± 0.8
328.15 K, 5010 kPa	647.8 ± 0.8
328.15 K, 9934 kPa	653.9 ± 0.8
328.15 K, 14950 kPa	659.6 ± 0.9
328.15 K, 19968 kPa	664.9 ± 0.9
328.15 K, 25011 kPa	669.8 ± 0.9
328.15 K, 30040 kPa	674.5 ± 0.9
328.15 K, 34952 kPa	678.7 ± 1
328.15 K, 39959 kPa	682.8 ± 1
328.15 K, 45017 kPa	686.8 ± 1
328.15 K, 49935 kPa	690.4 ± 1.1
328.15 K, 54941 kPa	694 ± 1.1
328.15 K, 59962 kPa	697.4 ± 1.1
328.15 K, 65006 kPa	700.8 ± 1.1
333.15 K, 92 kPa	636.3 ± 0.8
333.15 K, 4968 kPa	643.3 ± 0.8
333.15 K, 9977 kPa	649.8 ± 0.8
333.15 K, 15014 kPa	655.7 ± 0.9
333.15 K, 19986 kPa	661.1 ± 0.9
333.15 K, 25001 kPa	666.2 ± 0.9
333.15 K, 29959 kPa	670.9 ± 0.9
333.15 K, 34922 kPa	675.3 ± 1
333.15 K, 39972 kPa	679.5 ± 1
333.15 K, 45064 kPa	683.6 ± 1
333.15 K, 50006 kPa	687.3 ± 1.1
333.15 K, 54975 kPa	691 ± 1.1
333.15 K, 59984 kPa	694.5 ± 1.1
333.15 K, 64995 kPa	697.8 ± 1.2
338.15 K, 107 kPa	631.7 ± 0.8
338.15 K, 5007 kPa	639.1 ± 0.8
338.15 K, 9978 kPa	645.7 ± 0.8
338.15 K, 14968 kPa	651.8 ± 0.9
338.15 K, 19968 kPa	657.4 ± 0.9
338.15 K, 25042 kPa	662.7 ± 0.9
338.15 K, 30018 kPa	667.5 ± 0.9
338.15 K, 35052 kPa	672.1 ± 1
338.15 K, 39990 kPa	676.3 ± 1
338.15 K, 45087 kPa	680.5 ± 1
338.15 K, 49968 kPa	684.3 ± 1.1
338.15 K, 55044 kPa	688.1 ± 1.1
338.15 K, 60031 kPa	691.6 ± 1.1
338.15 K, 64997 kPa	695 ± 1.2
343.15 K, 98 kPa	626.8 ± 0.8
343.15 K, 4944 kPa	634.4 ± 0.8
343.15 K, 10008 kPa	641.5 ± 0.9
343.15 K, 14958 kPa	647.7 ± 0.9
343.15 K, 19959 kPa	653.5 ± 0.9
343.15 K, 25045 kPa	658.9 ± 0.9
343.15 K, 30012 kPa	663.9 ± 0.9
343.15 K, 34980 kPa	668.5 ± 1
343.15 K, 40024 kPa	672.9 ± 1
343.15 K, 44956 kPa	677.1 ± 1
343.15 K, 50037 kPa	681.1 ± 1.1
343.15 K, 55010 kPa	684.9 ± 1.1
343.15 K, 59979 kPa	688.5 ± 1.1
343.15 K, 65088 kPa	692.1 ± 1.2
348.15 K, 103 kPa	622 ± 0.8
348.15 K, 4998 kPa	630 ± 0.8
348.15 K, 9948 kPa	637.2 ± 0.9
348.15 K, 15016 kPa	643.8 ± 0.9
348.15 K, 19991 kPa	649.7 ± 0.9
348.15 K, 25051 kPa	655.3 ± 0.9
348.15 K, 29994 kPa	660.3 ± 1
348.15 K, 34970 kPa	665.1 ± 1
348.15 K, 39979 kPa	669.6 ± 1
348.15 K, 45063 kPa	673.9 ± 1
348.15 K, 50024 kPa	678 ± 1.1
348.15 K, 54974 kPa	681.8 ± 1.1
348.15 K, 59994 kPa	685.5 ± 1.1
353.15 K, 1014 kPa	618.8 ± 0.8
353.15 K, 5010 kPa	625.6 ± 0.8
353.15 K, 9950 kPa	633 ± 0.9
353.15 K, 15037 kPa	639.9 ± 0.9
353.15 K, 19996 kPa	646 ± 0.9
353.15 K, 25024 kPa	651.7 ± 0.9
353.15 K, 29983 kPa	656.9 ± 1
353.15 K, 34950 kPa	661.8 ± 1
353.15 K, 40060 kPa	666.5 ± 1
353.15 K, 45017 kPa	670.8 ± 1
353.15 K, 49987 kPa	674.9 ± 1.1
353.15 K, 54976 kPa	678.9 ± 1.1
353.15 K, 59989 kPa	682.7 ± 1.1
358.15 K, 5026 kPa	621 ± 0.8
358.15 K, 9954 kPa	628.7 ± 0.9
358.15 K, 15017 kPa	635.8 ± 0.9
358.15 K, 19926 kPa	642 ± 0.9
358.15 K, 25014 kPa	647.9 ± 0.9
358.15 K, 30045 kPa	653.4 ± 1
358.15 K, 35004 kPa	658.3 ± 1
358.15 K, 40013 kPa	663.1 ± 1
358.15 K, 44988 kPa	667.5 ± 1
358.15 K, 49996 kPa	671.7 ± 1.1
358.15 K, 55037 kPa	675.8 ± 1.1
358.15 K, 60020 kPa	679.6 ± 1.1
358.15 K, 65016 kPa	683.3 ± 1.2
363.15 K, 4947 kPa	616.2 ± 0.8
363.15 K, 10031 kPa	624.5 ± 0.9
363.15 K, 15019 kPa	631.7 ± 0.9
363.15 K, 19970 kPa	638.2 ± 0.9
363.15 K, 25122 kPa	644.3 ± 0.9
363.15 K, 30059 kPa	649.8 ± 1
363.15 K, 35064 kPa	654.9 ± 1
363.15 K, 40055 kPa	659.8 ± 1
363.15 K, 45078 kPa	664.3 ± 1.1
363.15 K, 49933 kPa	668.5 ± 1.1
363.15 K, 54989 kPa	672.7 ± 1.1
363.15 K, 59992 kPa	676.6 ± 1.2
363.15 K, 65058 kPa	680.3 ± 1.2

— the NIST ThermoML archive (doi:10.1021/acs.jced.9b00846)
